For this test, the system named is exon1htt(103Q)-mCFP cells, aggregate imaging, high-content. As to the kind of experiment: concentration-dependent loss of polyQ htt inclusions – imaging, exon1htt(103Q)-mCFP cells, high-content imaging, dose response (AID 486).

The source made the active and inactive calls.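 The calls were made as follows: active = ranking score of 15 or more out of 100, based on fitted potency or summed per-dose inhibition deviations; inactive = the rest.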

Turning to `COCCCNC(=O)C(Cc1ccccc1)NS(=O)(=O)c1ccc2c(c1)c(=O)n(C)c(=O)n2C` (configuration not stated), the IC50 (in general, the midpoint of a concentration-inhibition curve) was > 8 µM (inactive).
Regarding `CC1(C)CC(=O)C(C=NCCO)=C(O)C1`, the IC50 was > 8 µM (inactive).
